Results from patent publication US6638953B2, “Indole derivatives as 5-HT receptor antagonist” (SmithKline Beecham p.l.c., priority 1995, dated 2003).
Counter-ions that a name gives are not always drawn.

SMILES	melting point
COc1cc2c(cc1C(F)(F)F)N(C(=O)Nc1cncc(-c3ccc(Cl)cc3)c1)CC2 [Example 89]	198 to 199 °C
COc1cc2c(cc1C(F)(F)F)N(C(=O)Nc1cncc(-c3ccc(F)c(Cl)c3)c1)CC2 [Example 93]	113 to 115 °C
CSc1cc2c(cc1C(F)(F)F)N(C(=O)Nc1ccc(Sc3cccnc3)nc1)CC2 [Example 144]	204 to 206 °C
Cc1cc2c(cc1Cl)N(C(=O)Nc1ccc(C)c(-c3cccnc3)c1)CC2 [Example 23, 6-Chloro-5-methyl-1-(4-methyl-3-(pyrid-3-yl)-phenylcarbamoyl) Indoline]	202 to 203 °C
COc1cc2c(cc1C(F)(F)F)N(C(=O)Nc1cc(-c3ccncc3)cc(-c3cccnc3)c1)CC2 [Example 115]	153 to 154 °C
COc1cc2c(cc1C(F)(F)F)N(C(=O)Nc1ccc(Oc3cnccc3C)nc1)CC2 [Example 82, 5-Methoxy-6-trifluoromethyl-1-[6-(4-methylpyridin-3-yloxy)pyridin-3-ylcarbamoyl]indoline]	188 to 191 °C
COc1cc2c(cc1C(F)(F)F)N(C(=O)Nc1ccc(Oc3ccc(C)nc3C)nc1)CC2 [Example 166]	230 to 233 °C
O=C(Nc1ccc(F)c(-c2cccnc2)c1)N1CCc2cc(Cl)c(Cl)cc21 [Example 135]	200 to 202 °C
CSc1cc2c(cc1C(F)(F)F)N(C(=O)Nc1cccc(C(=O)NCc3cccnc3)c1)CC2 [Example 148]	210 to 215 °C
COc1cc2c(cc1C(F)(F)F)N(C(=O)Nc1cncc(-c3ccccc3C=O)c1)CC2 [Example 91]	114 to 116 °C
COc1cc2c(cc1C(F)(F)F)N(C(=O)Nc1cccc(-c3cnc4ccccc4c3)c1)CC2 [Example 86]	240 °C (dec.)
COc1cc2c(cc1C(F)(F)F)N(C(=O)Nc1cncc(-c3cncnc3)c1)CC2 [Example 130]	120 to 121 °C
COc1cc2c(cc1C(F)(F)F)N(C(=O)Nc1ccc(Oc3ccc(C(N)=O)cc3)nc1)CC2 [Example 163]	245 to 248 °C
COc1cc2c(cc1C(F)(F)F)N(C(=O)Nc1ccc(Oc3c(C)ccnc3C)nc1)CC2 [Example 156]	218 to 221 °C
Cc1ncccc1Oc1ccc(NC(=O)N2CCc3cc(Br)c(C(F)(F)F)cc32)cn1	211 to 213 °C
COc1cc2c(cc1C(F)(F)F)N(C(=O)Nc1cncc(-c3cccnc3)c1)CC2 [Example 12, 1-[5-(3-Pyridyl)-pyrid-3-yl Carbamoyl]-5-methoxy-6-trifluoromethyl Indoline]	113 to 114 °C
COc1cc2c(cc1C(F)(F)F)N(C(=O)Nc1cc(F)cc(-c3cnc(C)cc3C)c1)CC2 [Example 127]	215 to 218 °C
COc1cc2c(cc1C(F)(F)F)N(C(=O)Nc1cccc(OCc3cccnc3)c1)CC2 [Example 137]	202 to 204 °C
COc1cc2c(cc1C(F)(F)F)N(C(=O)Nc1ccnc(Oc3cccnc3)c1)CC2 [Example 64]	223 to 225 °C
COc1cc2c(cc1C(F)(F)F)N(C(=O)Nc1ccc(OCc3cccnc3)cc1)CC2 [Example 138]	215 to 217 °C
COc1cc2c(cc1C(F)(F)F)N(C(=O)Nc1ccc3c(ccn3-c3ccncc3)c1)CC2 [Example 59, 1-(1-(4-Pyridyl)-5-indolylcarbamoyl)-5-methoxy-6-trifluoromethylindoline]	206 to 211 °C

SMILES	melting point
COc1cc2c(cc1C(F)(F)F)N(C(=O)Nc1ccc(-c3cccnc3)nc1)CC2 [Example 36, 1-[6-(3-Pyridyl)-pyrid-3-ylcarbamoyl]-5-methoxy-6-trifluoromethylindoline]	> 270 °C
COc1cc2c(cc1C(F)(F)F)N(C(=O)Nc1ccc(-n3cccn3)nc1)CC2 [Example 96]	> 225 °C
COc1cc2c(cc1C(F)(F)F)N(C(=O)Nc1ccc(Oc3ccccc3C)nc1)CC2 [Example 157]	226 to 228 °C
COc1cc2c(cc1C(F)(F)F)N(C(=O)Nc1cncc(-c3ccccc3CO)c1)CC2 [Example 92]	190 to 192 °C
COc1cc2c(cc1C(F)(F)F)N(C(=O)Nc1cccc(-c3ccc(CN(C)C)cc3)c1)CC2 [Example 98]	209 to 211 °C
COc1cc2c(cc1C(F)(F)F)N(C(=O)Nc1cccc(-c3noc(C)n3)c1)CC2 [Example 27, 5-Methoxy-1-(5-methyl-(1,2-4-oxadiazol-3-yl)-phenylcarbamoyl)-6-trifluoromethyl Indoline]	203 to 204 °C
COc1cc2c(cc1C(F)(F)F)N(C(=O)Nc1cncc(-c3ccc(C(F)(F)F)cc3)c1)CC2 [Example 13, 1-[5-(4-Trifluoromethylphenyl)-pyrid-3-yl Carbamoyl]-5-methoxy-6-trifluoromethyl Indoline]	199 to 202 °C
COc1cc2c(cc1C(F)(F)F)N(C(=O)Nc1ccc3c(ccn3Cc3cccnc3)c1)CC2 [Example 71, 1-(1-(3-Pyridylmethyl)-5-indolylcarbamoyl)-5-methoxy-6-trifluoromethylindoline]	243 to 246 °C
COc1cc2c(cc1C(F)(F)F)N(C(=O)Nc1cc(F)c(C)c(-c3cccnc3)c1)CC2 [Example 124]	244 to 247 °C
O=C(Nc1ccc(F)c(-c2cncnc2)c1)N1CCc2cc(Cl)c(Cl)cc21 [Example 169]	132 to 135 °C
COc1cc2c(cc1C(F)(F)F)N(C(=O)Nc1cc(F)cc(-c3cnccn3)c1)CC2 [Example 126]	230 to 231 °C
COc1cc2c(cc1C(F)(F)F)N(C(=O)Nc1ccc(C)c(-c3cnccc3C)c1)CC2 [Example 109]	153 to 155 °C
COc1cc2c(cc1C(F)(F)F)N(C(=O)Nc1cncc(-c3ccc(C)cc3)c1)CC2 [Example 14, 1-[5-(4-Methylphenyl)-pyrid-3-yl Carbamoyl]-5-methoxy-6-trifluoromethyl Indoline]	190 to 191 °C
CSc1cc2c(cc1C(F)(F)F)N(C(=O)Nc1cccc(C(=O)CCc3ccccn3)c1)CC2 [Example 149]	145 to 146 °C
COc1cc2c(cc1C(F)(F)F)N(C(=O)Nc1ccc(Oc3ccccc3C(F)(F)F)nc1)CC2 [Example 164]	237 to 238 °C
COc1cc2c(cc1C(F)(F)F)N(C(=O)Nc1ccc(Oc3ccc(C)cc3C)nc1)CC2 [Example 160]	236 to 238 °C
COc1cc2c(cc1C(F)(F)F)N(C(=O)Nc1cccc(-c3ccnc(C)n3)c1)CC2 [Example 113]	> 220 °C
Cc1cc2c(cc1Cl)N(C(=O)Nc1cc(F)cc(-c3cccnc3C)c1)CC2 [Example 134]	205 to 206 °C
COc1cc2c(cc1C(F)(F)F)N(C(=O)Nc1cccc(-c3noc(CN(C)C)n3)c1)CC2 [Example 100]	154 to 155 °C
Cc1ncccc1Oc1ccc(NC(=O)N2CCc3cc(Cl)c(Cl)cc32)cn1 [Example 168]	225 to 228 °C
COc1cc2c(cc1C(F)(F)F)N(C(=O)Nc1cc(OC(F)(F)F)cc(-c3cccnc3)c1)CC2 [Example 122]	168 to 170 °C

SMILES	melting point
COc1cc2c(cc1C(F)(F)F)N(C(=O)Nc1cc(F)cc(-c3ccc(C)nc3)c1)CC2 [Example 116]	213 to 215 °C
CSc1cc2c(cc1C(F)(F)F)N(C(=O)Nc1ccc(Cc3ccncc3)cc1)CC2 [Example 147]	206 to 209 °C
CSc1cc2c(cc1C(F)(F)F)N(C(=O)Nc1ccc(-c3cncc(Cl)c3)nc1)CC2 [Example 142]	193 to 195 °C
Cc1cc2c(cc1Cl)N(C(=O)Nc1cc(F)cc(-c3cncnc3)c1)CC2 [Example 132]	222 to 226 °C
CSc1cc2c(cc1C(F)(F)F)N(C(=O)Nc1cc(F)cc(-c3cccnc3)c1)CC2 (as salt: hydrochloride) [Example 25, 1-(3-Fluoro-5-(pyrid-3-yl)phenylcarbamoyl)5-thiomethyl-6-trifluoromethyl-indoline Hydrochloride]	202 to 203 °C
COc1cc2c(cc1C(F)(F)F)N(C(=O)Nc1cccc(-c3cccnc3)c1OC)CC2 [Example 84]	196 to 197 °C
O=C(Nc1cc(F)cc(-c2cncnc2)c1)N1CCc2cc(Br)c(C(F)(F)F)cc21 [Example 172]	214 to 218 °C
COc1cc2c(cc1C(F)(F)F)N(C(=O)Nc1cc(-c3cccnc3)ccc1F)CC2 [Example 9, 1-[2-Fluoro-5-(3-pyridyl) Phenyl Carbamoyl]-5-methoxy-6-trifluoromethyl Indoline]	233 °C (dec.)
COc1cccc(Oc2ccc(NC(=O)N3CCc4cc(OC)c(C(F)(F)F)cc43)cn2)c1 [Example 158]	188 to 189 °C
O=C(Nc1cc(F)cc(-c2cncnc2)c1)N1CCc2cc(Cl)c(Cl)cc21 [Example 170]	260 °C
COc1cc2c(cc1C(F)(F)F)N(C(=O)Nc1ccc(-c3cccnc3)cc1)CC2 [Example 4, 1-[(3-Pyridyl)-4-phenyl Carbamoyl]-5-methoxy-6-trifluoromethylindoline]	> 230 °C
CSc1cc2c(cc1C(F)(F)F)N(C(=O)Nc1cncc(-c3ccccc3)c1)CC2 [Example 11, 1-(5-Phenyl Pyrid-3-yl Carbamoyl)-5-methylthio-6-trifluoromethyl Indoline]	208 to 214 °C
Cc1cc2c(cc1Cl)N(C(=O)Nc1ccc(F)c(-c3cccnc3)c1)CC2 [Example 136]	185 to 186 °C
COc1cc2c(cc1C(F)(F)F)N(C(=O)Nc1cnc(-c3cccnc3)c(C)c1)CC2 [Example 140]	230 to 232 °C
COc1cc2c(cc1C(F)(F)F)N(C(=O)Nc1ccc(Oc3cccc(C#N)c3)nc1)CC2 [Example 175]	136 to 138 °C
COc1cc2c(cc1C(F)(F)F)N(C(=O)Nc1ccc(-c3cccnc3)cn1)CC2 [Example 95]	> 225 °C
Cc1cc2c(cc1Cl)N(C(=O)Nc1ccc(F)c(-c3cncnc3)c1)CC2 [Example 171]	211 to 213 °C
COc1cc2c(cc1C(F)(F)F)N(C(=O)Nc1cccc(-c3cnc(C)cc3C)c1)CC2 [Example 117]	161 to 162 °C
COc1cc2c(cc1C(F)(F)F)N(C(=O)Nc1ccc(-c3ccncc3)cc1)CC2 [Example 5, 1-[(4-Pyridyl)-4-phenyl Carbamoyl]-5-methoxy-6-trifluoromethyl Indoline]	> 210 °C
